How the values were obtained:
Test in all cases: isoTOP-ABPP mapping of AEA-DA-modified peptides in Neuro2a cells
Format in all cases: cell-based
[1] = target: T1, AEA-DA-modified peptides in Neuro2a cells (Mus musculus, UniProt P42125); details: AEA-DA-modified peptide ECI1 P42125 276-284, SEQ ID NO 34; probe 100 μM, 12 replicates
T1 construct: endogenous in cells; host or cells: Neuro2a

[2] = target: T2, AEA-DA-modified peptides in Neuro2a cells (Mus musculus, UniProt Q6PIC6); details: AEA-DA-modified peptide ATP1A3 Q6PIC6 350-376, SEQ ID NO 18; probe 100 μM, 12 replicates
T2 construct: endogenous in cells; host or cells: Neuro2a

[3] = target: T3, AEA-DA-modified peptides in Neuro2a cells (Mus musculus, UniProt P53811); details: AEA-DA-modified peptide PITPNB P53811 32-45, SEQ ID NO 86; probe 100 μM, 12 replicates
T3 construct: endogenous in cells; host or cells: Neuro2a
T3 sequence (P53811 whole entry): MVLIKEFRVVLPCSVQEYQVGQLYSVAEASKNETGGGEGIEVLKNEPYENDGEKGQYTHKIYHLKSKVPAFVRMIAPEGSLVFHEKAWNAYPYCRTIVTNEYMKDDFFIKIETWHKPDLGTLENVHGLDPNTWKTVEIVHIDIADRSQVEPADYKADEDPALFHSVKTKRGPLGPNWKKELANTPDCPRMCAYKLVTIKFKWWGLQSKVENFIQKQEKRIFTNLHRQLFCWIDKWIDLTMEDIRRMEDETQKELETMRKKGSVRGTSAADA

[4] = target: T4, AEA-DA-modified peptides in Neuro2a cells (Mus musculus, UniProt P36536); details: AEA-DA-modified peptide SAR1A P36536 192-199, SEQ ID NO 95; probe 100 μM, 12 replicates
T4 construct: endogenous in cells; host or cells: Neuro2a
T4 sequence (P36536 whole entry): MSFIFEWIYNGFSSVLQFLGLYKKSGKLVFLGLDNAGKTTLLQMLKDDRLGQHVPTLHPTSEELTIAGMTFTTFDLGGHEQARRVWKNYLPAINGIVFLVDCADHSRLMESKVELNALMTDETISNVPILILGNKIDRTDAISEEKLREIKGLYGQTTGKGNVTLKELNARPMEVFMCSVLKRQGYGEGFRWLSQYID

[5] = target: T5, AEA-DA-modified peptides in Neuro2a cells (Mus musculus, UniProt P14733); details: AEA-DA-modified peptide LMNB1 P14733 159-183, SEQ ID NO 56; probe 100 μM, 12 replicates
T5 construct: endogenous in cells; host or cells: Neuro2a
T5 sequence (P14733 whole entry): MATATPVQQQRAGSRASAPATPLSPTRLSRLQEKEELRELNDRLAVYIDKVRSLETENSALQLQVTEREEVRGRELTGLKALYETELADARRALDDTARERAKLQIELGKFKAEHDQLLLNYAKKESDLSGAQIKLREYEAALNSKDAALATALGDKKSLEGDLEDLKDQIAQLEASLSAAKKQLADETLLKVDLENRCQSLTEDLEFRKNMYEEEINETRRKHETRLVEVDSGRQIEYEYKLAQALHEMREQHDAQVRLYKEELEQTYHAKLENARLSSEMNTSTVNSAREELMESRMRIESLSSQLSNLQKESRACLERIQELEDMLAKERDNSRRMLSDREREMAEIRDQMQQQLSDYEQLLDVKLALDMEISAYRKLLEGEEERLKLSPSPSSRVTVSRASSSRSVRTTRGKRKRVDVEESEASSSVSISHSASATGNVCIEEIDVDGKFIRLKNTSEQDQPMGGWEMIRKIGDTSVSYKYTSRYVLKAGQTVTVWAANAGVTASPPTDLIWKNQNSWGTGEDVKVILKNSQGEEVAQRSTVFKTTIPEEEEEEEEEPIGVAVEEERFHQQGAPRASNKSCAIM

[6] = target: T6, AEA-DA-modified peptides in Neuro2a cells (Mus musculus, UniProt Q99LR1); details: AEA-DA-modified peptide ABHD12 Q99LR1 263-284, SEQ ID NO 1; probe 100 μM, 12 replicates
T6 construct: endogenous in cells; host or cells: Neuro2a
T6 sequence (Q99LR1 whole entry): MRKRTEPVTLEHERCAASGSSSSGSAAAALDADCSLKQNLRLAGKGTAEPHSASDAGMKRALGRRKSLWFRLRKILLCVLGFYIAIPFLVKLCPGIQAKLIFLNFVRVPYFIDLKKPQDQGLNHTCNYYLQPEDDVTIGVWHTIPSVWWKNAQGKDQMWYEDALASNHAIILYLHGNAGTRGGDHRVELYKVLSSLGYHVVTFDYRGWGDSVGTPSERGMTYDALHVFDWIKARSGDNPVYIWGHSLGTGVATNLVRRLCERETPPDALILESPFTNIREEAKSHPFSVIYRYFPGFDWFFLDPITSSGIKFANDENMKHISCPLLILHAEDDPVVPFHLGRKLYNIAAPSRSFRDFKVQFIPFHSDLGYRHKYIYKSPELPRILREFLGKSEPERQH

[7] = target: T7, AEA-DA-modified peptides in Neuro2a cells (Mus musculus, UniProt P97311); details: AEA-DA-modified peptide MCM6 P97311 59-86, SEQ ID NO 59; probe 100 μM, 12 replicates
T7 construct: endogenous in cells; host or cells: Neuro2a
T7 sequence (P97311 whole entry): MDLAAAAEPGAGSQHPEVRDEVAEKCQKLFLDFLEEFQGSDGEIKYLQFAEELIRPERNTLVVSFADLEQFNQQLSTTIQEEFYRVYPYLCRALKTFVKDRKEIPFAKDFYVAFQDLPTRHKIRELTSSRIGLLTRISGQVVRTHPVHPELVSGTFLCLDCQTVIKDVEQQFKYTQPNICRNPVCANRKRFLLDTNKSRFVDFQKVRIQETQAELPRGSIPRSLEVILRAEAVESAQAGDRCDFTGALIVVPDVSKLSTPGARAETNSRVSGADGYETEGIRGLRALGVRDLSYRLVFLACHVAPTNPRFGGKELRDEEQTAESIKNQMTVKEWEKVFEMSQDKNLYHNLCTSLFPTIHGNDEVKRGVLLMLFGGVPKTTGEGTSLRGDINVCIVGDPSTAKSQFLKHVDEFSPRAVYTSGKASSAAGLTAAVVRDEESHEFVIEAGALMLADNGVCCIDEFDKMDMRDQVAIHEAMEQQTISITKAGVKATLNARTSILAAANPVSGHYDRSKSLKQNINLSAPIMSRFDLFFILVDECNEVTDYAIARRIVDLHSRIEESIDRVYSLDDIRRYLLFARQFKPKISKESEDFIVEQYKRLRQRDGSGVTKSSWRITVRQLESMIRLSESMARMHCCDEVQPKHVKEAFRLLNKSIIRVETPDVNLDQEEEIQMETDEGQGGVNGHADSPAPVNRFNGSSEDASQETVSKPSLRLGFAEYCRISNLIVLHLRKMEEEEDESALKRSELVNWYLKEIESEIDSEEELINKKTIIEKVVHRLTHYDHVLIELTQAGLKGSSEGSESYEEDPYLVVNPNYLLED

[8] = target: T8, AEA-DA-modified peptides in Neuro2a cells (Mus musculus, UniProt Q62351); details: AEA-DA-modified peptide TFRC Q62351 7-23, SEQ ID NO 110; probe 100 μM, 12 replicates
T8 construct: endogenous in cells; host or cells: Neuro2a
T8 sequence (Q62351 whole entry): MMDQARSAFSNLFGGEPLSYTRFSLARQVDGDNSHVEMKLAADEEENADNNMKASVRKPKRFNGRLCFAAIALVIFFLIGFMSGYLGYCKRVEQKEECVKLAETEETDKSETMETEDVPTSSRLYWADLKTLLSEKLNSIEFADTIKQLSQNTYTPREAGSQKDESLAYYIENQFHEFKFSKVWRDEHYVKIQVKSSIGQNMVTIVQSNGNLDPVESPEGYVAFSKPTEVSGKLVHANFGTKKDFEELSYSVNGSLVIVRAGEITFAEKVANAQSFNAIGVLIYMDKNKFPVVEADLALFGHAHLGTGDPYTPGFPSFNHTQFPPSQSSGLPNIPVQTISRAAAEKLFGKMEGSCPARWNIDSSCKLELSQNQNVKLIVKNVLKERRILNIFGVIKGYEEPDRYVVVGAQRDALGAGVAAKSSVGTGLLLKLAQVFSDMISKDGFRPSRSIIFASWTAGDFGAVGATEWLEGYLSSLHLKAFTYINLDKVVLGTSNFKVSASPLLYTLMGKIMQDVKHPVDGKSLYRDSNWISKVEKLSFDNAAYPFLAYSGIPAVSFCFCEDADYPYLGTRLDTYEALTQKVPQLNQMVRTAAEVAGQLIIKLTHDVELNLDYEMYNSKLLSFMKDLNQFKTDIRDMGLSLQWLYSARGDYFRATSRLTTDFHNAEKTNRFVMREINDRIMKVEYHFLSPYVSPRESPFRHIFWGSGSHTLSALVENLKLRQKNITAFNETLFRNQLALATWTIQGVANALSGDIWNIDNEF

[9] = target: T9, AEA-DA-modified peptides in Neuro2a cells (Mus musculus, UniProt P61750); details: probe 100 μM, 12 replicates
T9 construct: endogenous in cells; host or cells: Neuro2a
T9 sequence (P61750 whole entry): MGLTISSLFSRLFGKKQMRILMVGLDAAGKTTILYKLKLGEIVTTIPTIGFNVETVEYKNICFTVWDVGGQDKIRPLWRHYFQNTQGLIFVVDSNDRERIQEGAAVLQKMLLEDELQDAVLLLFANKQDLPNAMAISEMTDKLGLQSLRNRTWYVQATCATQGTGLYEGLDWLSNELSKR

[10] = target: T10, AEA-DA-modified peptides in Neuro2a cells (Mus musculus, UniProt Q9DCZ4); details: AEA-DA-modified peptide APOO Q9DCZ4 187-197, SEQ ID NO 9; probe 100 μM, 12 replicates
T10 construct: endogenous in cells; host or cells: Neuro2a
T10 sequence (Q9DCZ4 24-198): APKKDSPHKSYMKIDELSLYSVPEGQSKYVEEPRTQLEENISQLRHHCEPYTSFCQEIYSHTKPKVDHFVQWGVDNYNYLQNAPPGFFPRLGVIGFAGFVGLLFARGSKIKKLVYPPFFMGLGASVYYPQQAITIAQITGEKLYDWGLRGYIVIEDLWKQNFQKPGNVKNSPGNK

[11] = target: T11, AEA-DA-modified peptides in Neuro2a cells (Mus musculus, UniProt Q78ZA7); details: AEA-DA-modified peptide NAP1L4 Q78ZA7 84-94, SEQ ID NO 66; probe 100 μM, 12 replicates
T11 construct: endogenous in cells; host or cells: Neuro2a
T11 sequence (Q78ZA7 whole entry): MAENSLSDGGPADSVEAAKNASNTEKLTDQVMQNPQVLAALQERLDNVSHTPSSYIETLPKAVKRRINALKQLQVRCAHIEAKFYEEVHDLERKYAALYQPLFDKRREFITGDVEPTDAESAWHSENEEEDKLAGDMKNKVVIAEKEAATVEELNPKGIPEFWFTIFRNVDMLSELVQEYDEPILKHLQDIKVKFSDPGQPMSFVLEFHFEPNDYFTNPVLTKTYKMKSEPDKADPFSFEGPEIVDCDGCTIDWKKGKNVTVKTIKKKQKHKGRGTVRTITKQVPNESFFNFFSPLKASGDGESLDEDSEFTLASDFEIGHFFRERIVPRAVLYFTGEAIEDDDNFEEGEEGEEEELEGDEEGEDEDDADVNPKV

[12] = target: T12, AEA-DA-modified peptides in Neuro2a cells (Mus musculus, UniProt Q8C4B4); details: AEA-DA-modified peptide UNC119B Q8C4B4 142-151, SEQ ID NO 118; probe 100 μM, 12 replicates
T12 construct: endogenous in cells; host or cells: Neuro2a
T12 sequence (Q8C4B4 whole entry): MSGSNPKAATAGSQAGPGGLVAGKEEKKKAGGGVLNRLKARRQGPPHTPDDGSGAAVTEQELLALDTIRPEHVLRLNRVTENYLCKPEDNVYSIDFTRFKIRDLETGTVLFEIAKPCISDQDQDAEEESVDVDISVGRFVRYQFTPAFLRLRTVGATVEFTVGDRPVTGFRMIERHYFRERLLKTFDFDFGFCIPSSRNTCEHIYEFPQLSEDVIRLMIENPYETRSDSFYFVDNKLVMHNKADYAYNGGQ

T1 sequence (P42125 29-289): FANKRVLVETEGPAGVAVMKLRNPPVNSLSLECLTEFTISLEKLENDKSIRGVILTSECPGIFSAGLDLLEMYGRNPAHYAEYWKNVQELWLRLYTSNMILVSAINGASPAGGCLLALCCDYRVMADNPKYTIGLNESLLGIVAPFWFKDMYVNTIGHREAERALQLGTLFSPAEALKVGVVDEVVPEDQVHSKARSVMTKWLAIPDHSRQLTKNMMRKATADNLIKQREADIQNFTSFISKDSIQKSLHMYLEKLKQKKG

C#CCCCC1(CC/C=C\C/C=C\C/C=C\CCCC(=O)NCCO)N=N1 [AEA-DA, (5Z,8Z,11Z)-N-(2-hydroxyethyl)-14-(3-(pent-4-yn-1-yl)-3H-diazirin-3-yl)tetradeca-5,8,11-trienamide]
Times observed [1]: 2 | Times observed [2]: 2 | Times observed [3]: 4 | Times observed [4]: 6 | Times observed [5]: 2 | Times observed [6]: 2 | Times observed [7]: 3 | Times observed [8]: 2 | Times observed ([9]; AEA-DA-modified peptide ARF4 P61750 39-60, SEQ ID NO 13): 9 | Times observed ([9]; AEA-DA-modified peptide ARF4 P61750 110-128, SEQ ID NO 12): 2 | Times observed [10]: 2 | Times observed [11]: 3 | Times observed [12]: 3
